Key:
[1] = system: CDK2; assay: CDK2 expression in DU-145 cells, immunoblotting; assay type: cell-based, human; details: 72 hr
Method: After 72 hr treatment, cell lysates were collected and immunoblotting was performed. The membranes were probed with primary antibodies against CDK2 (Transduction Laboratory, San Jose, Calif.) and actin (Santa Cruz Biotechnology, Santa Cruz, Calif.) followed by horseradish peroxidase (HRP)-conjugated secondary antibodies and visualized using the Enhanced Chemi-Luminescence detection system (ECL) and ECL films.

[2] = system: DU-145 cells; assay: BrdU based cell proliferation assay, DU-145 cells; parameters: species or system human
Method: (§1) AC620 was incubated with hormone-refractory prostate cancer cell line DU-145 cells and hormone-responsive prostate cancer cell line LNCaP cells at various concentrations (0, 0.1, 0.5, 1, 5 μM) for 72 hr. LNCaP cells were maintained in RPMI 1640 medium (PAA Laboratories, Pashing, Austria) supplemented with 10% fetal calf serum (FCS) (Sigma, St. Louis, Mo.). The effect of AC620 on proliferation of DU-145 cells and LNCaP cells was determined by using a non-radioactive BrdU based cell proliferation assay kit (Roche, Switzerland) according to manufacturer's protocol. BrdU incorporation into the cellular DNA was determined by measuring the absorbance at 450 nm and 690 nm on an ELISA plate reader.
as §1, with “0 (Control) and” for “various concentrations (0, 0.1, 0.5, 1,”, “μM” for “μM)”, “for 24, 48 and” for “for”, “hr.” for “hr. LNCaP cells were maintained in RPMI 1640 medium (PAA Laboratories, Pashing, Austria) supplemented with 10% fetal calf serum (FCS) (Sigma, St. Louis, Mo.).”

[3] = system: VEGF; assay: VEGF expression in DU-145 cells, immunoblotting; assay type: cell-based, human
Method: AC620 was dissolved in ethanol and then added to cultured DU-145 cells, a hormone-refractory, metastatic prostate cancer cell line. The concentrations tested were 0, 0.1, 0.5, 1 and 4 μM, and the cells were grown for 72 hr. Cells treated with ethanol for the same time period were used as Control. DU-145 cells were maintained in RPMI 1640 medium (PAA Laboratories, Pashing, Austria) supplemented with 10% fetal calf serum (FCS) (Sigma, St. Louis, Mo.). After 72 hr treatment, cell Tysates were collected and immunoblotting was performed. The membranes were probed with primary antibodies against VEGF and actin (Santa Cruz Biotechnology, Santa Cruz, Calif.) followed by horseradish peroxidase (HRP)-conjugated secondary antibodies (Amersham Life Science, Alesbury, U.K.) and visualized using the Enhanced Chemi-Luminescence detection system (ECL) and ECL films (Amersham Pharmacia Biotech).

[4] = system: LNCaP cells; assay: Viable cells, Annexin-V staining and flow cytometry, LNCaP cells; assay type: cell-based, human; details: 72 hr
Method: AC620 was incubated with DU-145 cells, LNCaP cells and primary human prostate endothelial cells at high concentrations (0, 5, 100, 500, 1000 μM) for 72 hr. The number of viable cells was measured by Annexin-V staining followed by flow cytometry analysis.

[5] = system: HT-29 cells; assay: BrdU based cell proliferation assay, HT-29 cells; details: 72 hr
Method: as §1
AC620 was incubated with metastatic colorectal cancer cell line HT-29 cells at various concentrations (0, 0.1, 0.5, 1, 4 μM) for 72 hr. The effect of AC620 on proliferation of HT-29 cells was determined by using a non-radioactive, BrdU based cell proliferation assay as described above.

[6] = system: DU-145 cells; assay: Cell cycle profile by flow cytometry, DU-145 cells; assay type: cell-based, human; details: 72 hr
Method: AC620 was incubated with DU-145 cells at various concentrations ([…]) for 72 hr. The cells were then collected and their cell cycle profiles were measured by flow cytometry analysis.

[7] = system: DU-145 tumor xenografts; assay: Tumor growth in DU-145 xenograft mouse model; assay type: in vivo; details: for decrease of tumor size: athymic nude mice, DU-145 xenograft
Method: (§2) 8-12 week old athymic nude mice (Jackson Laboratories, Bar Harbor, Me., US) were randomly assigned to Control (n=10) and Treatment (n=10) groups. Tumor xenografts were generated by injecting DU-145 cells (4×10^6) subcutaneously into the mice (Day 1). 1 mg/kg body weight of AC620 or PBS (Control) was administrated to the mice by subcutaneous injection starting at the time of tumor implantation (Day 1) and the mice were treated twice a week. Tumors were measured periodically. At Day 30, the mice were sacrificed. Half of each tumor was processed for immunohistochemical analysis and the other half was frozen for subsequent protein and RNA analysis.

[8] = system: CDK2; assay: CDK2 expression in xenograft tumor samples, immunoblotting; assay type: in vivo, mouse
Method: as §2
Xenograft mouse model was generated and AC620 or PBS (Control) was administrated to the transplanted mice for 30 days as described above. After the mice were sacrificed, immunoblotting analysis of the tumor samples was performed using CDK1 and CDK2 antibodies as described above.

[9] = system: LNCaP cells; assay: BrdU based cell proliferation assay, LNCaP cells; parameters: species or system human; details: 5 μM
Method: as §1
as §1, with “0 (Control) and” for “various concentrations (0, 0.1, 0.5, 1,”, “μM” for “μM)”, “for 24, 48 and” for “for”, “hr.” for “hr. LNCaP cells were maintained in RPMI 1640 medium (PAA Laboratories, Pashing, Austria) supplemented with 10% fetal calf serum (FCS) (Sigma, St. Louis, Mo.).”

## CC1OC(OCC2OC(Oc3c(-c4ccc(O)c(O)c4)oc4cc(O)c(O)cc4c3=O)C(O)C(O)C2O)C(O)C(O)C1O (stereo not shown) [AC620]
[1]; 0.1 μm
  estimated decrease of CDK2 expression: ~0%
[1]; 0.5 μm
  estimated decrease of CDK2 expression: ~10%
[1]; 1 μm
  estimated decrease of CDK2 expression: ~20%
[1]; 4 μm
  estimated decrease of CDK2 expression: ~60%
[2]; 5 μM, after 24 hr
  decrease in cell proliferation of DU-145 cells: 6%
[2]; 5 μM, after 48 hrs
  decrease in cell proliferation of DU-145 cells: 31%
[2]; 5 μM, after 72 hr (time study)
  decrease in cell proliferation of DU-145 cells: 86%
[2]; 0.1 μm, 72 hr
  decrease in cell proliferation of DU-145 cells: 37%
[2]; 0.5 μm, 72 hr
  decrease in cell proliferation of DU-145 cells: 58%
[2]; 1 μm, 72 hr
  decrease in cell proliferation of DU-145 cells: 72%
[2]; 5 μm, 72 hr (dose study)
  decrease in cell proliferation of DU-145 cells: 84%
[3]; 0.1 μm AC620, 72 hr
  reduced VEGF expression: approximately 40%
[3]; 0.5 μm AC620, 72 hr
  reduced VEGF expression: approximately 60%
[3]; 1 μm AC620, 72 hr
  reduced VEGF expression: approximately 80%
[3]; 4 μm AC620, 72 hr
  reduced VEGF expression: over 95%
[4]; 5 μm
  viable LNCaP cells decreased: 42%
[4]; 100 μm
  viable LNCaP cells decreased: 67%
[4]; 500 μm
  viable LNCaP cells decreased: 92%
[4]; 1000 μm
  viable LNCaP cells decreased: 96%
[5]; 0.1 μm
  cell proliferation decreased, HT-29 cells: 0%
[5]; 0.5 μm
  cell proliferation decreased, HT-29 cells: 5%
[5]; 1 μm
  cell proliferation decreased, HT-29 cells: 46%
[5]; 4 μm
  cell proliferation decreased, HT-29 cells: 62%
[6]; 0.1 μm
  G1 phase cell cycle arrest: 0%
[6]; 0.5 μm
  G1 phase cell cycle arrest: 4%
[6]; 1 μm
  G1 phase cell cycle arrest: 18%
[6]; 5 μm
  G1 phase cell cycle arrest: 32%
[7]; 1 mg/kg subcutaneous twice a week, P<0.03
  tumor growth compared to Control: significantly reduced
[7]; Day 19, 1 mg/kg subcutaneous twice a week
  decrease of tumor size: 47%
[7]; Day 22, 1 mg/kg subcutaneous twice a week
  decrease of tumor size: 37%
[7]; Day 25, 1 mg/kg subcutaneous twice a week
  decrease of tumor size: 24%
[7]; Day 29, 1 mg/kg subcutaneous twice a week
  decrease of tumor size: 13%
[7]; immunohistochemical specimens, 30 days treatment
  morphology of tumor samples compared to Control group: more differentiated morphology
[8]; Treatment 1
  reduction of CDK2 expression in tumor samples: approximately 80%
[8]; Treatments 2, 3 and 4
  reduction of CDK2 expression in tumor samples: > 95%
[9]; after 24 hr
  decrease in cell proliferation of LNCaP cells: 16%
[9]; after 48 hr
  decrease in cell proliferation of LNCaP cells: 20%

Source: patent US20080261898A1, “COMPOSITION AND METHOD FOR CANCER TREATMENT AND PREVENTION” (priority 2007, published 2008)
